Data: patent US20240166598A1, “COMPOUNDS, COMPOSITIONS, AND METHODS OF USING THE SAME” (priority 2021, published 2024)

What was measured:
SARS CoV-2 PLpro = SARS CoV-2 PLpro (Severe acute respiratory syndrome coronavirus 2 (2019-nCoV) (SARS-CoV-2), UniProt P0DTD1); format: biochemical; details: 20 μM
human USP7 = human USP7 (Homo sapiens (Human), UniProt Q93009); test: USP7 selectivity counter-assay (Ub-AMC); format: biochemical; details: catalytic domain of human USP7; up to 30 μM for CPI-169
Procedure: (§1) Assay conditions were similar to the PLpro primary assay, with the following substitutions: USP7 assays contained 4 nM USP7 and 0.5 uM Ub-AMC (Boston Biochem); USP14 assays contained 1.7 uM USP14, 4 uM Ub-AMC, and the addition of 5% glycerol to Buffer B. PLpro activity with ISG15-AMC and Ub-AMC were assayed in a manner similar to the PLpro primary assay. PLpro and substrate concentrations were modified as follows: 80 nM PLpro was assayed with 0.5 uM Ub-AMC, and 4 nM PLpro was assayed with 0.5 uM ISG15-AMC.
as §1, with “to Buffer B.PLpro activity with” for “to Buffer B. PLpro activity with”, “with 0.5 μM ISG15-AMC.” for “with 0.5 uM ISG15-AMC.”

[1] = test system: SARS-CoV-2, Isolate USA-WA1/2020; test: microbe, parasite or virus in culture; format: cell-based; details: for EC50: Severe acute respiratory syndrome coronavirus 2, Vero C1008, read-out: EC50 against infectious SARS-CoV-2 (plaque formation)
SARS-CoV-2 USA/WA1/2020 = test: microbe, parasite or virus in culture; format: cell-based; details: for IC50: Severe acute respiratory syndrome coronavirus 2, 48 h, read-out: IC50 (viral RNA by RT-qPCR)
in vitro [2] = details: human, Caco-2
Vero E6 cells = details: African green monkey
[3] = human
in vitro [4] = details: human, microsomes
A549-hACE2 cells = test: Cytotoxicity in A549-hACE2 cells (CellTiter-Glo); details: assay conditions

human USP7, sequence (Q93009 214-521 limits assumed): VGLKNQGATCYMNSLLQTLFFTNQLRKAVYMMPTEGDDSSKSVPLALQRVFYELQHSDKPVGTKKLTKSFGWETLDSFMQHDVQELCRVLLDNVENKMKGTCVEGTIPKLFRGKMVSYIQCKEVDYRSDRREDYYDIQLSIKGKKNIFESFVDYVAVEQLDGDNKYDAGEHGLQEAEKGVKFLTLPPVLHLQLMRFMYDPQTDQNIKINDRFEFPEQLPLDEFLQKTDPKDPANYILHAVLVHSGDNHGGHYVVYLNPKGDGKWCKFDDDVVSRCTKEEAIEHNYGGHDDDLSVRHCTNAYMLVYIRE

## CC(C)c1cc(C(C)C)c(CC(=O)NS(=O)(=O)Oc2c(C(C)C)cccc2C(C)C)c(C(C)C)c1 [Avasimibe]
SARS CoV-2 PLpro
  result in the PLpro screen, in words: weak PLpro inhibitors

## Cc1ccc(N)cc1C(=O)N[C@H](C)c1cccc2ccccc12 [GRL0617, reference compound]
Human USP7
  inhibition of USP7-catalyzed Ub-AMC hydrolysis: did not inhibit
[1]
  EC50: 21.7 ± 1.6 µM
SARS-CoV-2 USA/WA1/2020
  IC50: > 20000 nM
In vitro [2]
  Papp A→B: 12.4 ×10⁻⁶ cm/s
  Papp B→A: 12.9 ×10⁻⁶ cm/s

## Cc1ccc(NC2CNC2)cc1C(=O)N[C@H](C)c1cccc(-c2ccc(CN[C@H]3CC[C@@H](O)C3)s2)c1 (single isomer, unassigned) [XR8-89]
[1]
  antiviral activity, in words: superior antiviral potency to GRL017
Vero E6 cells
  concentration at which no toxicity was observed: < 50 µM

## CCOc1nc2cccc(C(=O)O)c2n1Cc1ccc(-c2ccccc2-c2nnn[nH]2)cc1 [candesartan]
SARS CoV-2 PLpro
  result in the PLpro screen, in words: weak PLpro inhibitors

## Cc1ccc(NC2CNC2)cc1C(=O)N[C@H](C)c1cccc(-c2ccc(CNC3CCCC3)s2)c1 [XR8-23]
[3]
  In vitro CIint: 5.89 μL/min/mg protein
  Scale-up CIint: 7.38 mL/min/kg
Vero E6 cells
  concentration at which no toxicity was observed: < 50 µM
In vitro [4]
  half-life: 236 min
In vitro [2]
  Papp A→B: 0.16 ×10⁻⁶ cm/s
  Papp B→A: 1.56 ×10⁻⁶ cm/s
A549-hACE2 cells
  concentration at which cytotoxicity was not observed: < 10 µM

## Cc1ccc(NC2CNC2)cc1C(=O)N[C@H](C)c1cccc(-c2ccc(CN3CCCC3)s2)c1 [XR8-24]
[1]
  EC50: 2.5 ± 1.9 µM
SARS-CoV-2 USA/WA1/2020; 20 μM
  effect of treatment on viral RNA versus remdesivir (10 μM): not significantly different from that of remdesivir
SARS-CoV-2 USA/WA1/2020
  IC50: 1200 ± 200 nM
[3]
  In vitro CIint: 9.60 μL/min/mg protein
  Scale-up CIint: 12.04 mL/min/kg
Vero E6 cells
  concentration at which no toxicity was observed: < 50 µM
In vitro [4]
  half-life: 144 min
In vitro [2]
  Papp A→B: 0.14 ×10⁻⁶ cm/s
  Papp B→A: 3.06 ×10⁻⁶ cm/s
A549-hACE2 cells
  concentration at which cytotoxicity was not observed: < 50 µM

## CCS(=O)(=O)N1CCC([C@@H](C)n2c(C)c(C(=O)NCc3c(OC)cc(C)[nH]c3=O)c3ccccc32)CC1 [CPI-169]
Human USP7
  inhibition of USP7-catalyzed Ub-AMC hydrolysis: not able to inhibit USP7 up to a concentration of 30 μM
